{
  "source": "paper PMC12434071",
  "about": "“Platinum-group metal half-sandwich complexes of 1-(α-D-glucopyranosyl)-4-hetaryl-1,2,3-triazoles: synthesis, solution equilibrium studies, and investigation of their anticancer and antimicrobial activities” (Frontiers in Chemistry, 2025)",
  "key": {"[1]": {"test_system": "human primary dermal fibroblasts", "assay": "SRB assay on human primary dermal fibroblasts", "assay_type": "cell-based", "settings": "maximal inhibition; 48 h treatment; maximum concentration 100 µM", "procedure": "FIGURE 7 The ruthenium, osmium, and iridium complexes of ligands 4a, 4b, and 5a are cytostatic on ovarian cancer models with a good therapeutic index. For SRB assays, 1.5 × 10^3 A2780 cells, 1.5 × 10^3 ID8 cells, or 4 × 10^3 primary fibroblasts were plated into 96-well plates. Cells were treated with the compounds in the concentrations indicated for 48 h. Data are represented as average ± SD, from four biological replicates on A2780 and human primary fibroblasts, except in the case of Os complexes, where experiments were performed in three biological replicates. ID8 cells were assessed in three biological replicates. Individual assays were performed in duplicate. Values were normalized for vehicle-treated cells, and the absorbance for vehicle-treated cells equals 1. Normality was assessed using the D’Agostino–Pearson test. Statistical significance was assessed using a two-way ANOVA test followed by Tukey’s post hoc test. For better visibility, normality, transformations, statistical tests, and p values are presented in an MS Excel sheet at https://figshare.com/s/3a0aa60b66f3f746f41e. Color code: black—free ligand (4a,b or 5a), khaki—ruthenium complex (Ru-4a,b), blue—osmium complex (Os-4a,b or Os-5a), green—iridium complex (Ir-4a,b), and red—rhodium complex (Rh-4a,b). An SRB assay measures protein content of cells in correlation with the cell number in an assay well and can therefore be used to assess cell proliferation or long-term cytostasis ([Skehan et al., 1990]). Cells were seeded into 96-well plates the day before the treatment for the assay. Cells were treated with the various compounds for 48 h. Then, the medium was removed, and cells were fixed with 10% trichloroacetic acid. Fixed cells were washed in distilled water three times, followed by staining with SRB (0.4 m/V% dissolved in 1% acetic acid) for 10 min. Stained cells were washed in 1% acetic acid five times; the acetic acid was removed, and the cells were left to dry. […] Plates were measured in a plate photometer (Thermo Scientific Multiscan GO spectrophotometer, Waltham, MA, United States) at 540 nm. […]"}, "[2]": {"test_system": "A2780 cells", "assay": "SRB assay on A2780 cells", "assay_type": "cell-based", "settings": "maximal inhibition; 48 h treatment; maximum concentration 100 µM", "procedure": "For MTT assays, 4 × 10^3 A2780 cells were plated into 96-well plates, and for SRB assays, 1.5 × 10^3 A2780 cells were plated into 96-well plates. Cells were treated with the compounds in the concentrations indicated for either 4 h for an MTT assay or for 48 h for an SRB assay. Data are represented as average ± SD, from four biological replicates, with the exception of the MTT dataset of Ir-2b and the SRB datasets of 2b, Ru/Ir-2b, and Ir-3a, which were derived from three biological replicates. Individual assays were performed in duplicate. Values were normalized for vehicle-treated cells, and the absorbance for vehicle-treated cells equals 1. Data are represented as fold change compared to vehicle-treated controls. Normality was assessed using the D’Agostino–Pearson test. Statistical significance was assessed using a two-way ANOVA test followed by Tukey’s post hoc test. For better visibility, normality, transformations, statistical tests, and p values are presented in an MS Excel sheet at https://figshare.com/s/3a0aa60b66f3f746f41e. Color code: black—free ligand (2a,b or 3a), khaki—ruthenium complex (Ru-2a,b or Ru-3a), green—iridium complex (Ir-2a,b or Ir-3a).  FIGURE 7 The ruthenium, osmium, and iridium complexes of ligands 4a, 4b, and 5a are cytostatic on ovarian cancer models with a good therapeutic index. For SRB assays, 1.5 × 10^3 A2780 cells, 1.5 × 10^3 ID8 cells, or 4 × 10^3 primary fibroblasts were plated into 96-well plates. Cells were treated with the compounds in the concentrations indicated for 48 h. Data are represented as average ± SD, from four biological replicates on A2780 and human primary fibroblasts, except in the case of Os complexes, where experiments were performed in three biological replicates. ID8 cells were assessed in three biological replicates. Individual assays were performed in duplicate. Values were normalized for vehicle-treated cells, and the absorbance for vehicle-treated cells equals 1. Normality was assessed using the D’Agostino–Pearson test. Statistical significance was assessed using a two-way ANOVA test followed by Tukey’s post hoc test. For better visibility, normality, transformations, statistical tests, and p values are presented in an MS Excel sheet at https://figshare.com/s/3a0aa60b66f3f746f41e. Color code: black—free ligand (4a,b or 5a), khaki—ruthenium complex (Ru-4a,b), blue—osmium complex (Os-4a,b or Os-5a), green—iridium complex (Ir-4a,b), and red—rhodium complex (Rh-4a,b). An SRB assay measures protein content of cells in correlation with the cell number in an assay well and can therefore be used to assess cell proliferation or long-term cytostasis ([Skehan et al., 1990]). Cells were seeded into 96-well plates the day before the treatment for the assay. Cells were treated with the various compounds for 48 h. Then, the medium was removed, and cells were fixed with 10% trichloroacetic acid. Fixed cells were washed in distilled water three times, followed by staining with SRB (0.4 m/V% dissolved in 1% acetic acid) for 10 min. Stained cells were washed in 1% acetic acid five times; the acetic acid was removed, and the cells were left to dry. Protein-bound SRB was released by adding 100 µL of 10 mM Tris base. Plates were measured in a plate photometer (Thermo Scientific Multiscan GO spectrophotometer, Waltham, MA, United States) at 540 nm. Certain wells were designated to contain vehicle-treated cells on each plate. […] Statistical analysis was performed using version 8.0.1 of GraphPad Prism. Values were tested for normal distribution using the D’Agostino–Pearson or Shapiro–Wilk normality tests. When necessary, values were log-normalized or normalized using the Box–Cox or two-step normalization method ([Box and Cox, 1964]), as indicated in the MS Excel file listing the values at https://figshare.com/s/3a0aa60b66f3f746f41e. […]"}},
  "data": [
    {"compound": "O=C(OC[C@H]1O[C@H](n2cc(-c3ccc4ccccc4n3)nn2)[C@H](OC(=O)c2ccccc2)[C@@H](OC(=O)c2ccccc2)[C@@H]1OC(=O)c1ccccc1)c1ccccc1", "note": "[Complex 4b, 1-(2’,3’,4’,6’-Tetra-O-benzoyl-α-D-glucopyranosyl)-4-(quinolin-2-yl)-1,2,3-triazole]", "values": [
      {"measurement": "Fibroblast SRB max %", "setting": "[1]", "value": 10.76, "unit": "%"},
      {"measurement": "A2780 SRB max %", "setting": "[2]", "value": 0, "unit": "%"}
    ]},
    {"compound": "OC[C@H]1O[C@H](n2cc(-c3ccccn3)nn2)[C@H](O)[C@@H](O)[C@@H]1O", "note": "[Complex 3a, 1-(α-D-Glucopyranosyl)-4-(pyridin-2-yl)-1,2,3-triazole]", "values": [
      {"measurement": "A2780 SRB max %", "setting": "[2]", "value": 0, "unit": "%"}
    ]},
    {"compound": "CCCCC(=O)OC[C@H]1O[C@H](n2cc(-c3ccccn3)nn2)[C@H](OC(=O)CCCC)[C@@H](OC(=O)CCCC)[C@@H]1OC(=O)CCCC", "note": "[Complex 5a, 1-(2’,3’,4’,6’-Tetra-O-pentanoyl-α-D-glucopyranosyl)-4-(pyridin-2-yl)-1,2,3-triazole]", "values": [
      {"measurement": "Fibroblast SRB max %", "setting": "[1]", "value": 27.97, "unit": "%"},
      {"measurement": "A2780 SRB max %", "setting": "[2]", "value": 33.92, "unit": "%"}
    ]},
    {"compound": "O=C(OC[C@H]1O[C@H](n2cc(-c3ccccn3)nn2)[C@H](OC(=O)c2ccccc2)[C@@H](OC(=O)c2ccccc2)[C@@H]1OC(=O)c1ccccc1)c1ccccc1", "note": "[Complex 4a, 1-(2’,3’,4’,6’-Tetra-O-benzoyl-α-D-glucopyranosyl)-4-(pyridin-2-yl)-1,2,3-triazole]", "values": [
      {"measurement": "Fibroblast SRB max %", "setting": "[1]", "value": 11.89, "unit": "%"},
      {"measurement": "A2780 SRB max %", "setting": "[2]", "value": 29.51, "unit": "%"}
    ]}
  ]
}
